The values below come from patent publication US9181255B2, “Fused heteroaromatic pyrrolidinones as SYK inhibitors” (Takeda Pharmaceutical Company Limited, priority 2009, dated 2015).

Structures can show the parent of a compound that is named as a salt.

For this experiment, the target named is SYK (Homo sapiens, UniProt P43405). Description: SYK inhibition assay: SYK-mediated phosphorylation of FAM-labeled substrate (Caliper microfluidic). The experiment is classed as biochemical. Particulars: read-out: SYK Inhibition (pIC50) (converted).
For `Cc1cccc(Nc2nc(N[C@@H]3CCCC[C@@H]3O)nc3c2C(=O)NC3)c1` (relative stereo) [Example 11, Cis-2-(2-Hydroxycyclohexylamino)-4-(m-tolylamino)-6,7-dihydro-5H-pyrrolo[3,4-d]pyrimidin-5-one], the IC50 is 1260 nM.

As for `Cc1cccc(Nc2nc(N[C@@H]3COC[C@@H]3N)cc3c2C(=O)NC3)c1` (relative stereo) [Example 58, 6-(cis-4-Aminotetrahydrofuran-3-ylamino)-4-(m-tolylamino)-1H-pyrrolo[3,4-c]pyridin-3(2H)-one], the IC50 was 1580 nM.

As to `Cn1cc(-c2nc(N[C@@H]3CC(F)(F)C[C@@H]3N)c(F)c3c2C(=O)NC3)cn1` (relative stereo) [Example 66, 6-(cis-2-Amino-4,4-difluorocyclopentylamino)-7-fluoro-4-(1-methyl-1H-pyrazol-4-yl)-1H-pyrrolo[3,4-c]pyridin-3(2H)-one], the IC50 was 501 nM.

Take `Cn1cc(-c2nc(N[C@@H]3CCCC(F)(F)[C@@H]3N)c(F)c3c2C(=O)NC3)cn1` (relative stereo) [Example 67, 6-(cis-2-Amino-3,3-difluorocyclohexylamino)-7-fluoro-4-(1-methyl-1H-pyrazol-4-yl)-1H-pyrrolo[3,4-c]pyridin-3(2H)-one]: the IC50 was 39.8 nM.

Consider `N[C@@H]1[C@H](Nc2nc(-c3cnn(C(F)F)c3)c3c(c2F)CNC3=O)CCCC1(F)F` (relative stereo) [Example 68, 6-(cis-2-Amino-3,3-difluorocyclohexylamino)-4-(1-(difluoromethyl)-1H-pyrazol-4-yl)-7-fluoro-1H-pyrrolo[3,4-c]pyridin-3(2H)-one], for which the IC50 is 100 nM.

As to `N[C@@H]1[C@H](Nc2nc(-c3cnn(C4CC4)c3)c3c(c2F)CNC3=O)CCCC1(F)F` (relative stereo) [Example 69, 6-(cis-2-amino-3,3-difluorocyclohexylamino)-4-(1-cyclopropyl-1H-pyrazol-4-yl)-7-fluoro-1H-pyrrolo[3,4-c]pyridin-3(2H)-one], the IC50 was 158 nM.

`Cc1cccc(Nc2nc(N[C@@H]3CCCC(F)(F)[C@@H]3N)cc3c2C(=O)NC3)c1` (relative stereo) [Example 83, 6-(cis-2-Amino-3,3-difluorocyclohexylamino)-4-(m-tolylamino)-1H-pyrrolo[3,4-c]pyridin-3(2H)-one]: the IC50 is 251 nM.

For `N[C@H]1CCCC[C@H]1Nc1nc2c(c(Nc3cccc(F)c3)n1)C(=O)NC2` [Example 2, 2-((1R,2S)-2-Aminocyclohexylamino)-4-(3-fluorophenylamino)-6,7-dihydro-5H-pyrrolo[3,4-c]pyrimidin-5-one], the IC50 is 126 nM.

Turning to `N[C@H]1CCCC[C@H]1Nc1nc2c(c(Nc3cccc(Cl)c3)n1)C(=O)NC2` [Example 3, 2-((1R,2S)-2-Aminocyclohexylamino)-4-(3-chlorophenylamino)-6,7-dihydro-5H-pyrrolo[3,4-d]pyrimidin-5-one], the IC50 was 25.1 nM.

`N[C@H]1CCCC[C@H]1Nc1nc2c(c(Nc3ccc4cn[nH]c4c3)n1)C(=O)NC2` [Example 4, 4-(1H-Indazol-6-ylamino)-2-((1R,2S)-2-aminocyclohexylamino)-6,7-dihydro-5H-pyrrolo[3,4-c]pyrimidin-5-one]: the IC50 was 15.8 nM.

As to `Cc1cccc(Nc2nc(-c3cnn(C)c3)nc3c2C(=O)NC3)c1` [Example 7, 2-(1-Methyl-1H-pyrazol-4-yl)-4-(m-tolylamino)-6,7-dihydro-5H-pyrrolo[3,4-c]pyrimidin-5-one], the IC50 is 1000 nM.

For `CCN1CCN(c2nc3c(c(Nc4cccc(C)c4)n2)C(=O)NC3)CC1` [Example 9, 2-(4-Ethylpiperazin-1-yl)-4-(m-tolylamino)-6,7-dihydro-5H-pyrrolo[3,4-d]pyrimidin-5-one], the IC50 was 7940 nM.

In the case of `Cc1cccc(Nc2nc(NC3CCCCC3)nc3c2C(=O)NC3)c1` [Example 10, 2-(Cyclohexylamino)-4-(m-tolylamino)-6,7-dihydro-5H-pyrrolo[3,4-d]pyrimidin-5-one], the IC50 is more than 20000 nM.

Turning to `Cc1cccc(Nc2nc(N3CCCC(N)C3)nc3c2C(=O)NC3)c1` (stereo not shown) [Example 12, 2-(3-Aminopiperidin-1-yl)-4-(m-tolylamino)-6,7-dihydro-5H-pyrrolo[3,4-d]pyrimidin-5-one], the IC50 was 2000 nM.

Consider `Cn1cc(-c2nc(N[C@@H]3CCCC[C@@H]3N)nc3c2C(=O)NC3)cn1` [Example 14, 2-((1R,2S)-2-Aminocyclohexylamino)-4-(1-methyl-1H-pyrazol-4-yl)-6,7-dihydro-5H-pyrrolo[3,4-d]pyrimidin-5-one], for which the IC50 was 126 nM.

Regarding `CC(C)Cn1cc(-c2nc(N[C@@H]3CCCC[C@@H]3N)nc3c2C(=O)NC3)cn1` [Example 15, 2-((1R,2S)-2-Aminocyclohexylamino)-4-(1-isobutyl-1H-pyrazol-4-yl)-6,7-dihydro-5H-pyrrolo[3,4-c]pyrimidin-5-one], the IC50 was 1000 nM.

As for `N[C@H]1CCCC[C@H]1Nc1nc2c(c(-c3ccccc3)n1)C(=O)NC2` [Example 16, 2-((1R,2S)-2-Aminocyclohexylamino)-4-phenyl-6,7-dihydro-5H-pyrrolo[3,4-d]pyrimidin-5-one], the IC50 was 3160 nM.

Turning to `N[C@H]1CCCC[C@H]1Nc1nc2c(c(-c3csc4ccccc34)n1)C(=O)NC2` [Example 17, 2-((1R,2S)-2-Aminocyclohexylamino)-4-(benzo[b]thiophen-3-yl)-6,7-dihydro-5H-pyrrolo[3,4-c]pyrimidin-5-one], the IC50 is 39.8 nM.

`CCn1cc(-c2nc(N[C@@H]3CCCC[C@@H]3N)nc3c2C(=O)NC3)cn1` [Example 18, 2-((1R,2S)-2-Aminocyclohexylamino)-4-(1-ethyl-1H-pyrazol-4-yl)-6,7-dihydro-5H-pyrrolo[3,4-d]pyrimidin-5-one]: the IC50 was 79.4 nM.

Regarding `N[C@H]1CCCC[C@H]1Nc1nc2c(c(-c3cnn(Cc4ccccc4)c3)n1)C(=O)NC2` [Example 19, 2-((1R,2S)-2-Aminocyclohexylamino)-4-(1-benzyl-1H-pyrazol-4-yl)-6,7-dihydro-5H-pyrrolo[3,4-d]pyrimidin-5-one], the IC50 is 251 nM.

Take `N[C@H]1CCCC[C@H]1Nc1nc2c(c(-c3cnc4ccccn34)n1)C(=O)NC2` [Example 20, 2-((1R,2S)-2-Aminocyclohexylamino)-4-(imidazo[1,2-a]pyridin-3-yl)-6,7-dihydro-5H-pyrrolo[3,4-d]pyrimidin-5-one]: the IC50 was 200 nM.

As for `CCCn1cc(-c2nc(N[C@@H]3CCCC[C@@H]3N)nc3c2C(=O)NC3)cn1` [Example 21, 2-((1R,2S)-2-Aminocyclohexylamino)-4-(1-propyl-1H-pyrazol-4-yl)-6,7-dihydro-5H-pyrrolo[3,4-c]pyrimidin-5-one], the IC50 was 501 nM.

For the compound `COCCn1cc(-c2nc(N[C@@H]3CCCC[C@@H]3N)nc3c2C(=O)NC3)cn1` [Example 22, 2-((1R,2S)-2-Aminocyclohexylamino)-4-(1-(2-methoxyethyl)-1H-pyrazol-4-yl)-6,7-dihydro-5H-pyrrolo[3,4-d]pyrimidin-5-one], the IC50 was 2000 nM.

As to `N[C@H]1CCCC[C@H]1Nc1cc2c(c(Nc3ccc4cn[nH]c4c3)n1)C(=O)NC2` [Example 23, 4-(1H-Indazol-6-ylamino)-6-((1R,2S)-2-aminocyclohexylamino)-1H-pyrrolo[3,4-c]pyridin-3(2H)-one], the IC50 was 2 nM.

Turning to `Cc1cc(Nc2nc(N[C@@H]3CCCC[C@@H]3N)cc3c2C(=O)NC3)ccc1F` [Example 24, 6-((1R,2S)-2-Aminocyclohexylamino)-4-(4-fluoro-3-methylphenylamino)-1H-pyrrolo[3,4-c]pyridin-3(2H)-one], the IC50 is 25.1 nM.

As to `Cn1cc(-c2nc(N[C@@H]3CCCC[C@@H]3N)cc3c2C(=O)NC3)cn1` [Example 26, 6-((1R,2S)-2-Aminocyclohexylamino)-4-(1-methyl-1H-pyrazol-4-yl)-1H-pyrrolo[3,4-c]pyridin-3(2H)-one], the IC50 was 31.6 nM.

For the compound `Cn1cc(-c2nc(N[C@@H]3CCOC[C@@H]3N)cc3c2C(=O)NC3)cn1` [Example 27, 6-((3R,4R)-3-Aminotetrahydro-2H-pyran-4-ylamino)-4-(1-methyl-1H-pyrazol-4-yl)-1H-pyrrolo[3,4-c]pyridin-3(2H)-one], the IC50 is 39.8 nM.

For `Cn1cc(-c2nc(N[C@@H]3CCCC[C@@H]3N)c(Cl)c3c2C(=O)NC3)cn1` [Example 29, 6-((1R,2S)-2-Aminocyclohexylamino)-7-chloro-4-(1-methyl-1H-pyrazol-4-yl)-1H-pyrrolo[3,4-c]pyridin-3(2H)-one], the IC50 was 3.16 nM.

On to `N[C@H]1CCCC[C@H]1Nc1nc(-c2cnn3ccccc23)c2c(c1F)CNC2=O` [Example 31, 6-((1R,2S)-2-Aminocyclohexylamino)-7-fluoro-4-(pyrazolo[1,5-a]pyridin-3-yl)-1H-pyrrolo[3,4-c]pyridin-3(2H)-one], for which the IC50 was 2.51 nM.

Turning to `Cc1cccc(Nc2nc(N3CCCCC3CN)nc3c2C(=O)NC3)c1` (stereo not shown) [Example 32, 2-(2-(Aminomethyl)piperidin-1-yl)-4-(m-tolylamino)-6,7-dihydro-5H-pyrrolo[3,4-c]pyrimidin-5-one], the IC50 is 3980 nM.

In the case of `CS(=O)(=O)c1cccc(Nc2nc(N[C@@H]3CCCC[C@@H]3N)cc3c2C(=O)NC3)c1` [Example 33, 6-((1R,2S)-2-Aminocyclohexylamino)-4-(3-(methylsulfonyl)phenylamino)-1H-pyrrolo[3,4-c]pyridin-3(2H)-one], the IC50 was 50.1 nM.

`CS(=O)(=O)c1cccc(Nc2nc(N[C@@H]3CCC[C@@H]3N)cc3c2C(=O)NC3)c1` [Example 34, 6-((1R,2S)-2-Aminocyclopentylamino)-4-(3-(methylsulfonyl)phenylamino)-1H-pyrrolo[3,4-c]pyridin-3(2H)-one (HCl salt)]: the IC50 is 316 nM.

On to `CC(C)C[C@@H](Nc1cc2c(c(Nc3cccc(S(C)(=O)=O)c3)n1)C(=O)NC2)C(N)=O` [Example 35, (R)-4-Methyl-2-(4-(3-(methylsulfonyl)phenylamino)-3-oxo-2,3-dihydro-1H-pyrrolo[3,4-c]pyridin-6-ylamino)pentanamide], for which the IC50 is 50.1 nM.

With `CC(C)C[C@@H](Nc1cc2c(c(-c3cnn(C)c3)n1)C(=O)NC2)C(N)=O` [Example 36, (R)-4-Methyl-2-(4-(1-methyl-1H-pyrazol-4-yl)-3-oxo-2,3-dihydro-1H-pyrrolo[3,4-c]pyridin-6-ylamino)pentanamide], the IC50 was 25.1 nM.
